According to article PMC8237569 (Proceedings of the National Academy of Sciences of the …, 2021):
Converted amounts (≈) assume the structure as drawn.

Columns and labels:
[1] = system: TA-C–resistant M. tuberculosis strains (fbiC, fgd1 mutants); assay type: cell-based
[2] = system: NC1=NC2(CCCCC2)N(c2ccc(OCc3cn(CCCCOc4ccc5ccc(=O)oc5c4)nn3)cc2)C(N)=N1; experiment: purified protein, by the assay type; conditions: pH 7.5

| Molecule | MIC50 [1] | other results |
| --- | --- | --- |
| NNC(=O)c1ccncc1 [INH, isoniazid] | 0.4 µM (≈ 0.0549 µg/mL) |  |
| Nc1ccc(C(=O)O)c(O)c1 [PAS, para-aminosalicylic acid] | 0.2 µM (≈ 0.0306 µg/mL) |  |
| O=[N+]([O-])c1cn2c(n1)OC[C@@H](OCc1ccc(OC(F)(F)F)cc1)C2 [PTM, pretomanid] | >100 µM |  |
| CO[C@H]1/C=C/O[C@@]2(C)Oc3c(C)c(O)c4c(O)c(c(/C=N/N5CCN(C)CC5)c(O)c4c3C2=O)NC(=O)/C(C)=C\C=C\[C@H](C)[C@H](O)[C@@H](C)[C@@H](O)[C@@H](C)[C@H](OC(C)=O)[C@@H]1C [RIF, rifampicin] |  | MIC50, RIF [1]: 0.0016 µM (≈ 0.00132 µg/mL) |
| Rv1558 (Mycobacterium tuberculosis H37Rv) |  | Km [2]: 10.01 ± 1.6 µM |
